Measurements from US4439426A, “Semisynthetic macrolidic antibiotics, intermediate compounds for their preparation and related pharmaceutical compositions containing them” (priority 1981, dated 1984).
In brackets after ≈: the same amount, converted by molar mass.

Tests used:
Assay type in all cases: cell-based
[1] = test system: Acholeplasma laidlawii ATCC 23206 LRP 204; assay: Bacteriostatic power in solid medium (MIC); conditions: solid medium
Text: (§1) the bacteriostatic power, expressed as the minimum inhibiting concentration (MIC) against both aerobic and anaerobic, Gram positive and Gram negative, bacterial stocks: the related results are reported in the tables 2 and 3.

Bacillus subtilis LRP 25 = assay: Bacteriostatic power in solid medium (MIC); conditions: solid medium
Text: as §1

[2] = test system: Bacteroides fragilis ATCC 23745 LRP 205; assay: Bacteriostatic power in solid medium (MIC); conditions: solid medium, anaerobic
Text: as §1

[3] = test system: Corynebacterium diphteriae LRP 24; assay: Bacteriostatic power in solid medium (MIC); conditions: solid medium
Text: as §1

Escherichia coli LRP 50 = assay: Bacteriostatic power in solid medium (MIC); conditions: solid medium
Text: as §1

[4] = test system: Fusobacteriumnecrophroum ATCC 27852 LRP 210; assay: Bacteriostatic power in solid medium (MIC); conditions: solid medium, anaerobic
Text: as §1

[5] = test system: Haemophilus influenzae ATCC 19418 LRP 213; assay: Bacteriostatic power in solid medium (MIC)
Text: as §1

[6] = test system: Klelsiella pneumoniae LRP 54; assay: Bacteriostatic power in solid medium (MIC); conditions: solid medium
Text: as §1

[7] = test system: Micrococcus luteus ATCC 15957 LRP 193; assay: Bacteriostatic power in solid medium (MIC); conditions: solid medium, Erythromycin resistant
Text: as §1

[8] = test system: Micrococcus luteus ATCC 9341 LRP 6; assay: Bacteriostatic power in solid medium (MIC); conditions: solid medium
Text: as §1

[9] = test system: Mycoplasma hominis I ATCC 14027 LRP 211; assay: Bacteriostatic power in solid medium (MIC); conditions: solid medium
Text: as §1

[10] = test system: Neisseria gonorrhoeae ATCC 19424 LRP 214; assay: Bacteriostatic power in solid medium (MIC); conditions: solid medium
Text: as §1

[11] = test system: Proteus vulgaris ATCC 6380 LRP 13; assay: Bacteriostatic power in solid medium (MIC); conditions: solid medium
Text: as §1

[12] = test system: Pseudomonas aeruginosa LRP 9; assay: Bacteriostatic power in solid medium (MIC); conditions: solid medium
Text: as §1

Shigella sonnei LRP 5 = assay: Bacteriostatic power in solid medium (MIC); conditions: LRP5, read-out: Minimum inhibiting concentration
Text: as §1

[13] = test system: Staphylococcus aureus ATCC 14154 LRP 78; assay: Bacteriostatic power in solid medium (MIC)
Text: as §1

[14] = test system: Staphylococcus aureus ATCC 6538P LRP 14; assay: Bacteriostatic power in solid medium (MIC); conditions: solid medium, Penycilline resistant
Text: as §1

[15] = test system: Staphylococcus aureus ATCC 6538P LRP 39; assay: Bacteriostatic power in solid medium (MIC); conditions: solid medium
Text: as §1

[16] = test system: Streptococcus faecalis LRP 7; assay: Bacteriostatic power in solid medium (MIC); conditions: solid medium
Text: as §1

[17] = test system: Streptococcus faecalis subsp. zymogenes ATCC 12958 LRP 61; assay: Bacteriostatic power in solid medium (MIC); conditions: solid medium
Text: as §1

[18] = test system: Streptococcus pneumoniae ATCC 6303 LRP 35; assay: Bacteriostatic power in solid medium (MIC); conditions: solid medium
Text: as §1

[19] = test system: Streptococcus pneumoniae ATCC 6303 LRP 52; assay: Bacteriostatic power in solid medium (MIC); conditions: solid medium
Text: as §1

[20] = test system: Streptococcus pneumoniae ATCC 6303 LRP 53; assay: Bacteriostatic power in solid medium (MIC); conditions: solid medium
Text: as §1

[21] = test system: Streptococcus pyogenes ATCC 8668 LRP 197; assay: Bacteriostatic power in solid medium (MIC); conditions: solid medium
Text: as §1

[22] = test system: Streptococcus pyogenes ATCC 8668 LRP 34; assay: Bacteriostatic power in solid medium (MIC); conditions: solid medium
Text: as §1

[23] = test system: Clostridium perfrigens ATCC 3624 LRP 206; assay: microbe, parasite or virus in culture; conditions: ATCC3624, solid medium, anaerobic, read-out: Minimum inhibiting concentration
Text: as §1

Salmonella typhy LRP 8 = assay: microbe, parasite or virus in culture; conditions: LRP8, solid medium, read-out: Minimum inhibiting concentration
Text: as §1

[24] = test system: Corynebacterium diphteriae LRP 24; assay: Bacteriostatic power in liquid medium (MIC); conditions: liquid medium
Text: as §1

[25] = test system: Staphylococcus aureus ATCC 6538 P LRP 39; assay: Bacteriostatic power in liquid medium (MIC); conditions: liquid medium
Text: as §1

[26] = test system: Streptococcus faecalis subs. zymogenes ATCC 12958 LRP 61; assay: Bacteriostatic power in liquid medium (MIC); conditions: liquid medium
Text: as §1

[27] = test system: Streptococcus pneumoniae ATCC 6303 LRP 35; assay: Bacteriostatic power in liquid medium (MIC); conditions: liquid medium
Text: as §1

[28] = test system: Streptococcus pyogenes ATCC 8668 LRP 34; assay: Bacteriostatic power in liquid medium (MIC); conditions: liquid medium
Text: as §1

[29] = test system: Corynebacterium diphteriae LRP 24; assay: Minimum bactericidal concentration (MBC)
Text: (§2) the bacterial power, expressed as the minimum bactericidal power (MBC) against some Gram positive aerobic stocks (table 5).

[30] = test system: Staphylococcus aureus ATCC 6538 P LRP 39; assay: Minimum bactericidal concentration (MBC)
Text: as §2

[31] = test system: Streptococcus faecalis subs. zymogenes LRP 61; assay: Minimum bactericidal concentration (MBC)
Text: as §2

[32] = test system: Streptococcus pneumoniae ATCC 6303 LRP 35; assay: Minimum bactericidal concentration (MBC)
Text: as §2

[33] = test system: Streptococcus pyogenes ATCC 8668 LRP 34; assay: Minimum bactericidal concentration (MBC)
Text: as §2

[34] = Corynebacterium, LRP24, read-out: Minimum inhibiting concentration
[35] = read-out: Minimum inhibiting concentration
[36] = Staphylococcus aureus, ATCC6538P, read-out: Minimum inhibiting concentration
[37] = Enterococcus faecalis, ATCC12958, read-out: Minimum inhibiting concentration
[38] = Streptococcus pneumoniae, ATCC6303, read-out: Minimum inhibiting concentration
[39] = Streptococcus pyogenes, ATCC8668, read-out: Minimum inhibiting concentration

Work on `CC[C@H]1OC(=O)[C@H](C)[C@@H](O[C@H]2C[C@@](C)(OC)[C@@H](O)[C@H](C)O2)[C@H](C)[C@@H](O[C@@H]2O[C@H](C)C[C@H](N(C)C)[C@H]2O)[C@](C)(O)C[C@@H](C)C(=O)[C@H](C)[C@@H](O)[C@H]1C` [Erythromycin B, reference compound] yielded an MIC ([1]; Acholeplasma laidlawii, ATCC23206, read-out: Minimum inhibiting concentration) of 0.097 mg/L (≈ 0.135 µM), an MIC (Bacillus subtilis LRP 25; Bacillus subtilis, LRP25, read-out: Minimum inhibiting concentration) of 0.049 mg/L (≈ 0.0683 µM) and an MIC ([2]; Bacteroides fragilis, ATCC23745, read-out: Minimum inhibiting concentration) of 0.195 mg/L (≈ 0.272 µM). For the same compound, the MIC [3, 34] was 0.012 mg/L (≈ 0.0167 µM), the MIC (Escherichia coli LRP 50; Escherichia coli, LRP50, read-out: Minimum inhibiting concentration) was 25 mg/L (≈ 34.8 µM) and the MIC [4, 35] was 6.25 mg/L (≈ 8.71 µM). It also gave an MIC ([5]; Haemophilus influenzae, ATCC19418, read-out: Minimum inhibiting concentration) of 6.25 mg/L (≈ 8.71 µM), an MIC [6, 35] of 25 mg/L (≈ 34.8 µM) and an MIC ([7]; Micrococcus luteus, ATCC15957, read-out: Minimum inhibiting concentration) of 25 mg/L (≈ 34.8 µM). The MIC ([8]; Micrococcus luteus, ATCC9341, read-out: Minimum inhibiting concentration) was 0.006 mg/L (≈ 0.00836 µM), the MIC ([9]; Metamycoplasma hominis, ATCC14027, read-out: Minimum inhibiting concentration) was 25 mg/L (≈ 34.8 µM) and the MIC ([10]; Neisseria gonorrhoeae, ATCC19424, read-out: Minimum inhibiting concentration) was 0.097 mg/L (≈ 0.135 µM). It also gave an MIC ([11]; Proteus vulgaris, ATCC6380, read-out: Minimum inhibiting concentration) of 25 mg/L (≈ 34.8 µM), an MIC ([12]; Pseudomonas aeruginosa, LRP9, read-out: Minimum inhibiting concentration) of 25 mg/L (≈ 34.8 µM) and an MIC (Shigella sonnei LRP 5) of 25 mg/L (≈ 34.8 µM). The MIC ([13]; Staphylococcus aureus, ATCC14154, read-out: Minimum inhibiting concentration) was 25 mg/L (≈ 34.8 µM), the MIC [14, 36] was 0.195 mg/L (≈ 0.272 µM) and the MIC [15, 36] was 0.097 mg/L (≈ 0.135 µM). For the same compound, the MIC ([16]; Enterococcus faecalis, LRP7, read-out: Minimum inhibiting concentration) was 0.195 mg/L (≈ 0.272 µM), the MIC [17, 37] was 0.195 mg/L (≈ 0.272 µM) and the MIC [18, 38] was 0.024 mg/L (≈ 0.0334 µM). For the same compound, the MIC [19, 38] was 0.024 mg/L (≈ 0.0334 µM), the MIC [20, 38] was 0.024 mg/L (≈ 0.0334 µM) and the MIC [21, 39] was 0.024 mg/L (≈ 0.0334 µM). For the same compound, the MIC [22, 39] was 0.024 mg/L (≈ 0.0334 µM), the MIC [23] was 1.56 mg/L (≈ 2.17 µM) and the MIC (Salmonella typhy LRP 8) was 25 mg/L (≈ 34.8 µM). It also gave an MIC [24, 34] of 0.012 mg/L (≈ 0.0167 µM), an MIC ([25]; Staphylococcus aureus, ATCC6538, read-out: Minimum inhibiting concentration) of 0.195 mg/L (≈ 0.272 µM) and an MIC [26, 37] of 0.39 mg/L (≈ 0.543 µM). For the same compound, the MIC [27, 38] was 0.049 mg/L (≈ 0.0683 µM), the MIC [28, 39] was 0.024 mg/L (≈ 0.0334 µM) and the MBC/MIC [29] was 16. The MBC ([29]; Corynebacterium, LRP24, read-out: Minimum bactericidal concentration (MBC)) was 0.195 mg/L (≈ 0.272 µM), the MBC/MIC [30] was 32 and the MBC ([30]; Staphylococcus aureus, ATCC6538, read-out: Minimum bactericidal concentration (MBC)) was 6.25 mg/L (≈ 8.71 µM). For the same compound, the MBC/MIC [31] was 16, the MBC ([31]; Enterococcus faecalis, read-out: Minimum bactericidal concentration (MBC)) was 6.25 mg/L (≈ 8.71 µM) and the MBC/MIC [32] was 4. For the same compound, the MBC ([32]; Streptococcus pneumoniae, ATCC6303, read-out: Minimum bactericidal concentration (MBC)) was 0.195 mg/L (≈ 0.272 µM), the MBC/MIC [33] was 8 and the MBC ([33]; Streptococcus pyogenes, ATCC8668, read-out: Minimum bactericidal concentration (MBC)) was 0.195 mg/L (≈ 0.272 µM).

“(8S)-8-fluoroerythromycin A carbonate [P80206 carbonate]” was tested, and the Minimum inhibiting concentration [1] was 0.195 mg/L, the Minimum inhibiting concentration (Bacillus subtilis LRP 25) was 0.049 mg/L and the Minimum inhibiting concentration [2] was 0.78 mg/L. It also gave a Minimum inhibiting concentration [3] of 0.024 mg/L, a Minimum inhibiting concentration (Escherichia coli LRP 50) of 3.12 mg/L and a Minimum inhibiting concentration [4] of 6.25 mg/L. It also gave a Minimum inhibiting concentration ([5]; solid medium) of 6.25 mg/L, a Minimum inhibiting concentration [6] of 12.5 mg/L and a Minimum inhibiting concentration [7] of 25 mg/L. It also gave a Minimum inhibiting concentration [8] of 0.024 mg/L, a Minimum inhibiting concentration [9] of 25 mg/L and a Minimum inhibiting concentration [10] of 0.049 mg/L. For the same compound, the Minimum inhibiting concentration [11] was 25 mg/L, the Minimum inhibiting concentration [12] was 25 mg/L and the Minimum inhibiting concentration ([13]; solid medium, Erythromycin resistant) was 25 mg/L. For the same compound, the Minimum inhibiting concentration [14] was 0.097 mg/L, the Minimum inhibiting concentration [15] was 0.097 mg/L and the Minimum inhibiting concentration [16] was 0.097 mg/L. For the same compound, the Minimum inhibiting concentration [17] was 0.097 mg/L, the Minimum inhibiting concentration [18] was 0.012 mg/L and the Minimum inhibiting concentration [19] was 0.012 mg/L. It also gave a Minimum inhibiting concentration [20] of 0.012 mg/L, a Minimum inhibiting concentration [21] of 0.024 mg/L and a Minimum inhibiting concentration [22] of 0.012 mg/L. It also gave a Minimum inhibiting concentration [24] of 0.024 mg/L, a Minimum inhibiting concentration [25] of 0.39 mg/L and a Minimum inhibiting concentration [26] of 0.195 mg/L. The Minimum inhibiting concentration [27] was 0.049 mg/L and the Minimum inhibiting concentration [28] was 0.024 mg/L.
